According to US20220325301A1, “AUXOTROPHIC SELECTION METHODS” (AUXOLYTIC LTD, priority 2019, published 2022):

Legend:
[1] = test system: UMPS knockout H9 human embryonic stem cells (hESCs); assay: Lineage-specific auxotrophy during beta cell differentiation (GFP ratio in mCherry-off vs mCherry-on cells, fluorescence microscopy); format: cell-based; conditions: uridine withdrawal at day 12
From the text: As a proof of concept, UMPS knockout cells were engineered to express insulin and were differentiated to pancreatic progenitor cells using an appropriate method as described, for example, in Ma et al. (2018), Pagliuca et al. (2014), and/or Rezania et al. (2014) discussed and incorporated herein. The UMPS gene was knocked out in H9 human embryonic stem cells (hESCs) according to the methods described herein. A GFP-Luciferase expression construct under regulation of a constitutive promoter was integrated by homologous recombination into the HBB locus (see, for example, Dever, Daniel P., et al. “CRISPR/Cas9 β-globin gene targeting in human haematopoietic stem cells.” Nature 539.7629 (2016): 384-389, the contents of which are incorporated herein by reference in their entirety). […] Cells were monitored and assessed for mCherry and UMPS expression on subsequent days up to day 25. The differentiation protocol was followed with cells either in the continuous presence of uridine through day 18 or through the end of the culture period, or through only day 12 (during Stage 4). mCherry and UMPS expression were assessed. An mCherry on vs. off threshold was defined to identify UMPS expressing cells (given UMPS expression is coupled to mCherry) using thresholding based on fluorescence images. […]
Therefore, expression of GFP in mCherry negative cells, when uridine is present, was expected to be higher than the expression of GFP in mCherry negative cells when uridine is absent. […] The results are shown in Table 7, where the “Auxotrophy Metric” was calculated as the mean GFP ratio in uridine-withdrawn conditions divided by the mean GFP ratio in uridine-continued conditions: [(mean GFP(mCherry-Off)/mean GFP(mCherry-On)) uridine-withdrawn-conditions]/[(mean GFP(mCherry-Off)/mean GFP(mCherry-On)) uridine-continued conditions].

UMPS knockout cells [2] = assay: Selection of cells re-expressing UMPS in a UMPS-/- background (% mCherry+ by flow cytometry); format: cell-based; conditions: after 14 days in culture
Experimental: A construct (SEQ ID NO: 42) expressing mCherry and UMPS separated by a 2A linker sequence under control of a constitutive promoter (EF1a) delivered via DNA vector was inserted by electroporation into the CCR5 locus targeted using homologous recombination arms. Cells were grown in the presence of uridine to alleviate any selection pressure, then uridine was removed to select for cells successfully re-expressing UMPS. Cells were sorted by expression of mCherry using flow cytometry. After 14 days in culture, % mCherry+ cells was approximately 20% in the presence of uridine; % mCherry+ cells was approximately 90% in the absence of uridine.

UMPS knockout cells [3] = assay: Split auxotrophy: selection of dual transgene integration (CD19/mCherry flow cytometry); format: cell-based, human; conditions: day 16
Experimental: The UMPS locus is disrupted in the hESCs by electroporation of Cas9 RNP to insert an expression control sequence comprising a tissue-specific promoter into the genomic locus. The promoter will begin to instigate transcription due to interaction with endothelial tissue. For gene editing, hESCs are treated with 10 μm ROCK inhibitor (Y-27632) for 24 hours before electroporation. Cells at 70-80% confluence are harvested with ACCUTASE® solution (Life Technologies). 500,000 cells were used per reaction with a SpCas9 concentration of 150 μg/mL (Integrated DNA Technologies) and a Cas9:sgRNA molar ratio of 1:3 and electroporation performed in P3 Primary Cell solution (Lonza) in 16-well NUCLEOCUVETTE™ Strips in the 4D NUCLEOFECTOR system (Lonza). Immediately after electroporation, cells are transferred into one well of a MATRIGEL® protein mixture (Corning, Inc.)-coated 24 well plate containing 500 μl of mTeSR™ media (STEMCELL Technologies) with 10 μM Y-27632. Media was changed 24 hours after editing and Y-27632 is removed 48 hours after.
Independent functional domains of UMPS, i.e. OPRT and ODC, are reintroduced into UMPS knockout cells according to Example 2 using two separate vectors. A first homologous recombination donor vector carrying OPRT and mCherry (SEQ ID NO: 43) comprises sequence encoding OPRT (SEQ ID NO: 4, encoding amino acid sequence of SEQ ID NO: 5), 2A linker (SEQ ID NO: 19, SEQ ID NO: 21, or SEQ ID NO: 23, encoding amino acid sequences of SEQ ID NO: 20, SEQ ID NO: 22, and SEQ ID NO: 24, respectively), and sequence encoding mCherry fluorescent protein (SEQ ID NO: 34 or SEQ ID NO: 35, each encoding amino acid sequence of SEQ ID NO: 36). Homologous recombination donor vector carrying ODC and CD19 (SEQ ID NO: 44) comprises sequence encoding tCD19 (SEQ ID NO: 37, encoding amino acid sequence of SEQ ID NO: 38), 2A linker, and sequence encoding ODC (SEQ ID NO: 6, encoding amino acid sequence of SEQ ID NO: 7). Expression of OPRT and ODC constructs can be driven by a eukaryotic promoter such as EF1a (SEQ ID NO: 31 or SEQ ID NO: 32). Homologous recombination vectors are co-targeted for integration into safe harbor locus CCR5 (using, for example, CCR5 left and right homology arms selected from SEQ ID NOs: 11-15 as described herein). Homologous recombination vectors can further include termination signals such as a bGH-PolyA termination signal (SEQ ID NO: 39 or SEQ ID NO: 40). Cells are cultured with and without uridine, and the percent of cells expressing both CD19 and mCherry (CD19+/mCherry+) is measured by flow cytometry over time.

## INS-mCherry-UMPS: tricistronic construct expressing insulin, mCherry and UMPS under endogenous insulin regulatory control sequences, integrated into the insulin locus
[1]; culture day 12
  Auxotrophy Metric (mean GFP ratio mCherry-Off/mCherry-On, uridine-withdrawn divided by uridine-continued): 0.9904
[1]; culture day 18
  Auxotrophy Metric (mean GFP ratio mCherry-Off/mCherry-On, uridine-withdrawn divided by uridine-continued): 0.9827
[1]; culture day 25
  Auxotrophy Metric (mean GFP ratio mCherry-Off/mCherry-On, uridine-withdrawn divided by uridine-continued): 0.7261

## SEQ ID NO: 42: construct expressing mCherry and UMPS separated by a 2A linker under constitutive EF1a promoter, inserted into the CCR5 locus of UMPS knockout cells
UMPS knockout cells [2]; in the absence of uridine
  % mCherry+ cells: approximately 90%
UMPS knockout cells [2]; in the presence of uridine
  % mCherry+ cells: approximately 20%

## Split UMPS: two homologous recombination donor vectors, OPRT and mCherry (SEQ ID NO: 43) and ODC and CD19 (SEQ ID NO: 44), co-targeted to CCR5
UMPS knockout cells [3]; +Uridine
  % CD19+ only: 1.2%
  % CD19+/mCherry+: 0.3%
  % CD19-/mCherry-: 92.9%
  % mCherry+ only: 5.6%
UMPS knockout cells [3]; No Uridine
  % CD19+ only: 0.1%
  % CD19+/mCherry+: 94.7%
  % CD19-/mCherry-: 0.1%
  % mCherry+ only: 5.1%
